In US20240254123A1, “PYRIDOPYRIMIDINE DERIVATIVES USEFUL AS WEE1 KINASE INHIBITORS” (APREA THERAPEUTICS, INC., priority 2021, published 2024):
pIC50: −log10 of the molar value. Where “and” joins values, the source holds several entries; their conditions need not be identical. Equal values may be shown once.

Legend:
WEE1 [1] = target: T1, WEE1 (Homo sapiens, UniProt P30291); experiment: Guava flow cytometry cell cycle assay (DNA content per cell, propidium iodide); type: cell-based; settings: for WEE1 Guava MEC Guava MEC: single agent, unit assumed; for WEE1 Guava MEC with 20 nM GEM: in µM (unit assumed)
T1 construct: Drug treated cells are fixed and stained with propidium iodide (PI); endogenous in cells
Source text: In this example, compounds described herein were subject to an assay that detects changes the phases of the cell cycle upon drug treatment, permitting the identification of drugs that affect cell proliferation in a specific manner. For example, problematic DNA replication causes the percentage of cells in S phase to increase. Thus, quantification of cells in S phase permits identification of drugs that cause defects in DNA replication. Similarly, drugs that selectively defects in progression through G2/M can also be identified. Moreover, synergy between assayed drugs and known cell cycle regulators can be determined, as exemplified by the effect of ATR inhibition when combined with agents that slow DNA replication, which causes replication fork collapse into DSBs and complete loss of DNA synthesis. Two novel drugs can also be combined to quantify synergistic effects on specific cell cycle phases.
The assay operates by the quantification of DNA content per cell by flow cytometry. Cells are assessed for effects on cell cycle using a Guava EasyCyte™ flow cytometer (Austin, TX). Drug treated cells are fixed and stained with propidium iodide (PI) and resuspended in phosphate-buffered saline containing the PI staining buffer. During flow cytometry, PI is excited at 528 nm and is detected in a 610/20 bandpass. Readout of the […] is optical density of DNA-staining dye. The assay generates a histogram showing count of cells by amount of DNA, which is an indicator of place in the cell cycle. This rapid assay detects relative changes in the cell cycle upon drug treatment upon comparison vehicle-treated and single-agent controls for detection of combinatorial interactions. See, Table 4.

WEE1 [2] = target: T1, WEE1; experiment: in vitro enzymatic inhibitory activity, WEE1 kinase, 10-dose IC50 mode; type: biochemical; settings: 10 μM ATP
Experimental: Compounds were tested against two kinases.
Data includes raw data, % Enzyme activity (relative to DMSO controls) and curve fits.

T1 sequence (P30291 whole entry): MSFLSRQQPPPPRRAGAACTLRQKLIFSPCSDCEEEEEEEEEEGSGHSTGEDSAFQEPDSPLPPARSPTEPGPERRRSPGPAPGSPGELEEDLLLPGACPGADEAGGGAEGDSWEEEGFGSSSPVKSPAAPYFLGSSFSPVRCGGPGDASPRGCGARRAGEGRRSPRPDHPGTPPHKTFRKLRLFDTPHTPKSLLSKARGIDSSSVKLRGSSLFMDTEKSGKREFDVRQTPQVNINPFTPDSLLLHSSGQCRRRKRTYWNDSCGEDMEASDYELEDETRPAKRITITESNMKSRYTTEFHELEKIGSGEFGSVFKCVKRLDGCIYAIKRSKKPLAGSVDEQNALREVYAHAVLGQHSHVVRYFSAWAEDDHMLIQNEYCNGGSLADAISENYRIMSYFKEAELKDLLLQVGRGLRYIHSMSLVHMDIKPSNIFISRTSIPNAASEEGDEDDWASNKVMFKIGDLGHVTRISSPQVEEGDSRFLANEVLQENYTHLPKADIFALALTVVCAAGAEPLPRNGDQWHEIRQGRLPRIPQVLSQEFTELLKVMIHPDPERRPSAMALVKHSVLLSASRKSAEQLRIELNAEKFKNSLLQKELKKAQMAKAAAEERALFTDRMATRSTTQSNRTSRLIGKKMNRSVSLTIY

Structure (SMILES)	WEE1 Guava MEC Guava MEC (WEE1 [1])	WEE1 Guava MEC with 20 nM GEM (WEE1 [1])	pIC50 (WEE1 [2])
C=C(C)c1cn(-c2c(Cl)cccc2Cl)c(=O)c2cnc(Nc3cnn(C4CCNCC4)c3)nc12 [Compound P6, 6-(2,6-dichlorophenyl)-2-((1-(piperidin-4-yl)-1H-pyrazol-4-yl)amino)-8-(prop-1-en-2-yl)pyrido[4,3-d]pyrimidin-5(6H)-one]	5 µM	1.25	
CN1CCC(n2cc(Nc3ncc4c(=O)n(-c5c(Cl)cccc5Cl)cc(Br)c4n3)cn2)CC1 [Compound P1, 8-bromo-6-(2,6-dichlorophenyl)-2-[[1-(1-methyl-4-piperidyl)pyrazol-4-yl]amino]pyrido[4,3-d]pyrimidin-5-one]	0.625 µM	0.156	7.39
CN1CCc2ccc(Nc3ncc4c(=O)n(-c5c(Cl)cccc5Cl)cc(Br)c4n3)cc2C1 [Compound P11, 8-bromo-6-(2,6-dichlorophenyl)-2-[(2-methyl-3,4-dihydro-1H-isoquinolin-7-yl)amino]pyrido[4,3-d]pyrimidin-5-one]	0.313 µM	0.156	7.51
CCc1cn(-c2c(Cl)cccc2Cl)c(=O)c2cnc(Nc3cnn(C4CCN(C)CC4)c3)nc12 [Compound P5, 6-(2,6-dichlorophenyl)-8-ethyl-2-((1-(1-methylpiperidin-4-yl)-1H-pyrazol-4-yl)amino)pyrido[4,3-d]pyrimidin-5(6H)-one]	> 5 µM	1.25	
CC(C)c1cn(-c2c(Cl)cccc2Cl)c(=O)c2cnc(Nc3cnn(C4CCNCC4)c3)nc12 [Compound P8, 6-(2,6-dichlorophenyl)-8-isopropyl-2-[[1-(4-piperidyl)pyrazol-4-yl]amino]pyrido[4,3-d]pyrimidin-5-one]	5 µM	1.25	
Cc1cn(-c2c(Cl)cccc2Cl)c(=O)c2cnc(Nc3cnn(C4CCN(C)CC4)c3)nc12 [Compound P2, 6-(2,6-dichlorophenyl)-8-methyl-2-[[1-(1-methyl-4-piperidyl)pyrazol-4-yl]amino]pyrido[4,3-d]pyrimidin-5-one]	5 µM	1.25	
C=C(C)c1cn(-c2c(Cl)cccc2Cl)c(=O)c2cnc(Nc3cnn(C4CCN(C)CC4)c3)nc12 [Compound P7, 6-(2,6-dichlorophenyl)-8-isopropenyl-2-[[1-(1-methyl-4-piperidyl)pyrazol-4-yl]amino]pyrido[4,3-d]pyrimidin-5-one]	2.5 µM	1.25	
CCc1cn(-c2c(Cl)cccc2Cl)c(=O)c2cnc(Nc3cnn(C4CCNCC4)c3)nc12 [Compound P4, 6-(2,6-dichlorophenyl)-8-ethyl-2-[[1-(4-piperidyl)pyrazol-4-yl]amino]pyrido[4,3-d]pyrimidin-5-one]	1.25 µM	0.625	7.33
O=c1c2cnc(Nc3cnn(C4CCNCC4)c3)nc2c(C2CC2)cn1-c1c(Cl)cccc1Cl [Compound P3, 8-cyclopropyl-6-(2,6-dichlorophenyl)-2-[[1-(4-piperidyl)pyrazol-4-yl]amino]pyrido[4,3-d]pyrimidin-5-one]	2.5 µM	0.625	
CC(C)c1cn(-c2c(Cl)cccc2Cl)c(=O)c2cnc(Nc3cnn(C4CCN(C)CC4)c3)nc12 [Compound P9, 6-(2,6-dichlorophenyl)-8-isopropyl-2-[[1-(1-methyl-4-piperidyl)pyrazol-4-yl]amino]pyrido[4,3-d]pyrimidin-5-one]	5 µM	1.25	

Continued, values first:

WEE1 Guava MEC Guava MEC (WEE1 [1])	WEE1 Guava MEC with 20 nM GEM (WEE1 [1])	pIC50 (WEE1 [2])	Structure (SMILES)
5 µM	1.25		O=c1c2cnc(Nc3ccc4c(c3)C(O)CC4)nc2c(Br)cn1-c1c(Cl)cccc1Cl (centres unmarked) [Compound P24, 8-bromo-6-(2,6-dichlorophenyl)-2-[(3-hydroxyindan-5-yl)amino]pyrido[4,3-d]pyrimidin-5-one]
0.313 µM	0.156		O=c1c2cnc(Nc3ccc4c(c3)CNCC43CC3)nc2c(Br)cn1-c1c(Cl)cccc1Cl [Compound P19, 8-bromo-6-(2,6-dichlorophenyl)-2-(spiro[2,3-dihydro-1H-isoquinoline-4,1′-cyclopropane]-7-ylamino)pyrido[4,3-d]pyrimidin-5-one]
> 1.25 µM	0.625		CN1CCCC(n2cc(Nc3ncc4c(=O)n(-c5c(Cl)cccc5Cl)cc(Br)c4n3)cn2)C1 (centres unmarked) [Compound P12, 8-bromo-6-(2,6-dichlorophenyl)-2-[[1-(1-methyl-3-piperidyl)pyrazol-4-yl]amino]pyrido[4,3-d]pyrimidin-5-one]
1.25 µM	0.625		Cc1cccc(C)c1-n1cc(Br)c2nc(Nc3cnn(C4CCN(C)CC4)c3)ncc2c1=O [Compound P27, 8-bromo-6-(2,6-dimethylphenyl)-2-[[1-(1-methyl-4-piperidyl)pyrazol-4-yl]amino]pyrido[4,3-d]pyrimidin-5-one]
0.313 µM	0.156		CN1Cc2cc(Nc3ncc4c(=O)n(-c5c(Cl)cccc5Cl)cc(Br)c4n3)ccc2C2(CC2)C1 [Compound P20, 8-bromo-6-(2,6-dichlorophenyl)-2-[(2-methylspiro[1,3-dihydroisoquinoline-4,1′-cyclopropane]-7-yl)amino]pyrido[4,3-d]pyrimidin-5-one]
2.5 µM	0.625		Cc1cc(Cl)c(-n2cc(Br)c3nc(Nc4cnn(C5CCNCC5)c4)ncc3c2=O)c(Cl)c1 [Compound P16, 8-bromo-6-(2,6-dichloro-4-methyl-phenyl)-2-[[1-(4-piperidyl)pyrazol-4-yl]amino]pyrido[4,3-d]pyrimidin-5-one]
0.625 µM	0.313 and 0.625		CN1CCN(c2ccc(Nc3ncc4c(=O)n(-c5c(Cl)cccc5Cl)cc(Br)c4n3)cc2)CC1 [Compound P21, 8-bromo-6-(2,6-dichlorophenyl)-2-[4-(4-methylpiperazin-1-yl)anilino]pyrido[4,3-d]pyrimidin-5-one]
5 µM	0.625		Cc1cccc(F)c1-n1cc(Br)c2nc(Nc3cnn(C4CCN(C)CC4)c3)ncc2c1=O [Compound P26, 8-bromo-6-(2-fluoro-6-methyl-phenyl)-2-[[1-(1-methyl-4-piperidyl)pyrazol-4-yl]amino]pyrido[4,3-d]pyrimidin-5-one]
5 µM	1.25		Cc1ccc(Cl)c(-n2cc(Br)c3nc(Nc4cnn(C5CCN(C)CC5)c4)ncc3c2=O)c1Cl [Compound P15, 8-bromo-6-(2,6-dichloro-3-methyl-phenyl)-2-[[1-(1-methyl-4-piperidyl)pyrazol-4-yl]amino]pyrido[4,3-d]pyrimidin-5-one]
0.625 µM	0.313		O=c1c2cnc(Nc3cnn(C4CCCNC4)c3)nc2c(Br)cn1-c1c(Cl)cccc1Cl (centres unmarked) [Compound P13, 8-bromo-6-(2,6-dichlorophenyl)-2-[[1-(3-piperidyl)pyrazol-4-yl]amino]pyrido[4,3-d]pyrimidin-5-one]
2.5 µM	1.25		CN(C)C1CCc2ccc(Nc3ncc4c(=O)n(-c5c(Cl)cccc5Cl)cc(Br)c4n3)cc21 (centres unmarked) [Compound P22, 8-bromo-6-(2,6-dichlorophenyl)-2-[[3-(dimethylamino)indan-5-yl]amino]pyrido[4,3-d]pyrimidin-5-one]
> 5 µM	1.25		Cc1ccc(Cl)c(-n2cc(Br)c3nc(Nc4cnn(C5CCNCC5)c4)ncc3c2=O)c1Cl [Compound P14, 8-bromo-6-(2,6-dichloro-3-methyl-phenyl)-2-[[1-(4-piperidyl)pyrazol-4-yl]amino]pyrido[4,3-d]pyrimidin-5-one]
2.5 µM	0.625		Cc1cc(Cl)c(-n2cc(Br)c3nc(Nc4cnn(C5CCN(C)CC5)c4)ncc3c2=O)c(Cl)c1 [Compound P17, 8-bromo-6-(2,6-dichloro-4-methyl-phenyl)-2-[[1-(1-methyl-4-piperidyl)pyrazol-4-yl]amino]pyrido[4,3-d]pyrimidin-5-one]
5 µM	2.5		NC1CCc2ccc(Nc3ncc4c(=O)n(-c5c(Cl)cccc5Cl)cc(Br)c4n3)cc21 (centres unmarked) [Compound P23, 2-[(3-aminoindan-5-yl)amino]-8-bromo-6-(2,6-dichlorophenyl)pyrido[4,3-d]pyrimidin-5-one]
5 µM	0.625		Cc1cccc(F)c1-n1cc(Br)c2nc(Nc3cnn(C4CCNCC4)c3)ncc2c1=O [Compound P25, 8-bromo-6-(2-fluoro-6-methyl-phenyl)-2-[[1-(4-piperidyl)pyrazol-4-yl]amino]pyrido[4,3-d]pyrimidin-5-one]
